# In ChEMBL document CHEMBL6177973, “A Novel Compound 3a-M1, from Metabolites of Sinomenine Derivative 3a, Exerts Potent Anti-Aplastic Anemia Activity via IP3R/ORAI-Mediated CTL Ferroptosis” (J Med Chem, 2025):
# Activity calls are given as the source filed them. The rule behind the calls is not given here.
# What was measured:
# [1] = Drug metabolism in rat plasma assessed as double hydrolyzation/double demethylation-mediated metabolite formation at 50 mg/kg, po measured for 24 hrs by HRMS analysis; assay type: ADME, organism-based; conditions: in vivo
# [2] = Drug metabolism in Sprague-Dawley rat plasma assessed as cinnamic acid metabolite formation at 50 mg/kg, po measured for 24 hrs by HPLC analysis; assay type: ADME, organism-based; conditions: in vivo
# [3] = Drug metabolism in rat plasma assessed as double hydrolyzation-mediated metabolite formation at 50 mg/kg, po measured for 24 hrs by HRMS analysis; assay type: ADME, organism-based; conditions: in vivo
# [4] = Drug metabolism in mouse thymus assessed as cinnamic acid metabolite formation at 50 mg/kg, po measured for 0.083 to 8 hrs by HPLC analysis; assay type: ADME, organism-based; conditions: in vivo, time 0.083-8 hrs
# [5] = Drug metabolism in mouse plasma assessed as (4bR,9S)-1-(hydroxymethyl)-3,7-dimethoxy-11-methyl-6-oxo-6,8a,9,10-tetrahydro-5H-9,4b-(epiminoethano)phenanthren-4-yl cinnamate metabolite formation administered orally by HRMS analysis; assay type: ADME; conditions: po
# [6] = Drug metabolism in rat plasma assessed as hydrolyzation/demethylation-mediated metabolite formation at 50 mg/kg, po measured for 24 hrs by HRMS analysis; assay type: ADME, organism-based; conditions: in vivo
# [7] = Stability in mouse lymph node assessed as compound remaining at 50 mg/kg, po measured for 0.083 to 8 hrs by HPLC analysis; assay type: ADME, organism-based; conditions: in vivo, time 0.083-8 hrs
# [8] = Drug metabolism in rat plasma assessed as hydrolyzation/double hydroxylation-mediated metabolite formation at 50 mg/kg, po measured for 24 hrs by HRMS analysis; assay type: ADME, organism-based; conditions: in vivo
# [9] = Stability in mouse blood assessed as compound remaining at 50 mg/kg, po measured for 0.083 to 8 hrs by HPLC analysis; assay type: ADME, organism-based; conditions: in vivo, time 0.083-8 hrs
# [10] = Drug metabolism in rat plasma assessed as cinnamic acid metabolite formation at 50 mg/kg, po measured for 24 hrs by HPLC-UV analysis; assay type: ADME, organism-based; conditions: in vivo
# [11] = test system: Mus musculus; assay: Anti-aplastic anemia activity in BALB/c mouse model of immune-mediated bone marrow failure assessed as increase in animal survival at 10 mg/kg, po treated for 14 days; assay type: functional, organism-based; conditions: time 14.0 day
# [12] = Drug metabolism in rat plasma assessed as (4bR,9S)-1-(hydroxymethyl)-3,7-dimethoxy-11-methyl-6-oxo-6,8a,9,10-tetrahydro-5H-9,4b-(epiminoethano)phenanthren-4-yl cinnamate metabolite formation at 50 mg/kg, po measured for 24 hrs by HRMS analysis; assay type: ADME, organism-based; conditions: in vivo
# [13] = Oral bioavailability in Sprague-Dawley rat at 50 mg/kg measured for 0.083 to 24 hrs by HPLC analysis; assay type: ADME, organism-based; conditions: in vivo, time 0.083-24 hrs
# [14] = Drug metabolism in mouse thymus assessed as (4bR,9S)-1-(hydroxymethyl)-3,7-dimethoxy-11-methyl-6-oxo-6,8a,9,10-tetrahydro-5H-9,4b-(epiminoethano)phenanthren-4-yl cinnamate metabolite formation at 50 mg/kg, po measured for 0.083 to 8 hrs by HPLC analysis; assay type: ADME, organism-based; conditions: in vivo, time 0.083-8 hrs
# [15] = Drug metabolism in mouse lymph node assessed as (4bR,9S)-1-(hydroxymethyl)-3,7-dimethoxy-11-methyl-6-oxo-6,8a,9,10-tetrahydro-5H-9,4b-(epiminoethano)phenanthren-4-yl cinnamate metabolite formation at 50 mg/kg, po measured for 0.083 to 8 hrs by HPLC analysis; assay type: ADME, organism-based; conditions: in vivo, time 0.083-8 hrs
# [16] = test system: CTLL-2; assay: Induction of ferroptosis in mouse CTLL-2 cells assessed as increase in mitochondrial superoxide level incubated for 16 hrs by MitoSOX Red staining based fluorescent microscopy; assay type: functional, cell-based; conditions: dose 7.5-30 µM
# [17] = test system: Mus musculus; assay: Anti-aplastic anemia activity in BALB/c mouse model of immune-mediated bone marrow failure assessed as increase in platelet cells at 10 mg/kg, po treated for 14 days; assay type: functional, organism-based; conditions: time 14.0 day
# [18] = test system: CD8-positive T cell; assay: Inhibition of CD3/CD28-activated CD8-positive T cell activation in BALB/c mouse lymph nodes assessed as decrease in lactate production at 1 to 10 uM incubated for 72 hrs; assay type: functional, tissue-based; conditions: Lymph node, dose 1-10 µM
# [19] = test system: CTLL-2; assay: Induction of ferroptosis in IL-2-stimulated mouse CTLL-2 cells assessed as increase in ROS level at 30 uM incubated for 6 hrs followed by Fer-1 addition measured after 10 hrs by DCFH-DA staining based flow cytometry; assay type: functional, cell-based; conditions: time 16.0 hrs
# [20] = test system: Mus musculus; assay: Anti-aplastic anemia activity in C57BL/6J mouse model of immune-mediated bone marrow failure assessed as CD8+ T cells at 5 mg/kg, IG qd treated for 12 days by flow cytometry (reference value: 72.15 %); assay type: functional; conditions: time 12 day
# [21] = test system: CD8-positive T cell; assay: Inhibition of CD3/CD28-activated CD8-positive T cell activation in BALB/c mouse lymph nodes assessed as decrease in CD69 expression level at 1 to 10 uM incubated for 72 hrs by flow cytometry; assay type: functional, tissue-based; conditions: Lymph node, dose 1-10 µM
# [22] = test system: CTLL-2; assay: Induction of ferroptosis in mouse CTLL-2 cells assessed as increase in extracellular Ca2+ influx at 10 uM incubated for 24 hrs in presence of EDTA by Fluo-4 AM dye based analysis; assay type: functional, cell-based
# [23] = Acute toxicity in 12 hr-fasted KM mouse assessed as maximum tolerable dose administered orally as single dose measured for 14 days; conditions: in vivo, route po, time 14 day
# [24] = test system: HL-60; assay: Cytotoxicity against human HL-60 cells assessed as inhibition of cell viability incubated for 72 hrs by CCK8 assay; assay type: functional, cell-based; conditions: HL-60, 72 h
# [25] = test system: CTLL-2; assay: Induction of ferroptosis in IL-2-stimulated mouse CTLL-2 cells assessed as increase in pERK level at 30 uM incubated for 6 hrs followed by Fer-1 addition measured after 10 hrs by Western blot analysis; assay type: functional, cell-based; conditions: time 16.0 hrs
# [26] = test system: CTLL-2; assay: Induction of ferroptosis in mouse CTLL-2 cells assessed as increase in intracellular Ca2+ concentration at 10 uM incubated for 45 mins in presence of CM4620 by Fluo-4 AM dye based analysis; assay type: functional, cell-based
# [27] = test system: CD8-positive T cell; assay: Inhibition of CD3/CD28-activated CD8-positive T cell activation in BALB/c mouse lymph nodes assessed as decrease in glucose consumption at 1 to 10 uM incubated for 72 hrs; assay type: functional, tissue-based; conditions: Lymph node, dose 1-10 µM
# [28] = test system: Mus musculus; assay: Anti-aplastic anemia activity in C57BL/6J mouse model of immune-mediated bone marrow failure assessed as decrease in CD8+ T cells at 5 to 15 mg/kg, IG qd treated for 12 days by flow cytometry; assay type: functional, organism-based; conditions: dose 5-15 mg/kg, time 12.0 day
# [29] = test system: HepG2; assay: Induction of ferroptosis in human HepG2 cells assessed as increase in intracellular Ca2+ concentration at 10 uM by Fluo-4 AM dye based analysis; assay type: functional, cell-based
# [30] = test system: CTLL-2; assay: Induction of ferroptosis in IL-2-stimulated mouse CTLL-2 cells assessed as increase in pMEK level at 30 uM incubated for 6 hrs followed by Fer-1 addition measured after 10 hrs by Western blot analysis; assay type: functional, cell-based; conditions: time 16.0 hrs
# [31] = test system: Mus musculus; assay: Anti-aplastic anemia activity in C57BL/6J mouse model of immune-mediated bone marrow failure assessed as CD8+ T cells at 10 mg/kg, IG qd treated for 12 days by flow cytometry (reference value: 72.15 %); assay type: functional; conditions: time 12 day
# [32] = AUC in Sprague-Dawley rat at 50 mg/kg, po measured for 0.083 to 24 hrs by HPLC analysis; assay type: ADME, organism-based; conditions: in vivo, time 0.083-24 hrs
# [33] = test system: Mus musculus; assay: Anti-aplastic anemia activity in BALB/c mouse model of immune-mediated bone marrow failure assessed as decrease in abnormal proportion of lymphocytes in bone marrow at 10 mg/kg, po treated for 14 days by H and E staining based analysis; assay type: functional, organism-based; conditions: time 14.0 day
structure (smiles),measurement,setting,value
COC1=C[C@@H]2[C@@H]3Cc4c(COC(=O)/C=C/c5ccccc5)cc(OC)c(OC(=O)/C=C/c5ccccc5)c4[C@]2(CCN3C)CC1=O,Drug metabolism,[1],metabolite_detected
same,Drug metabolism,[2],metabolite_detected
same,Drug metabolism,[3],metabolite_detected
same,Drug metabolism,[4],metabolite_detected
same,Drug metabolism,[5],metabolite_detected
same,Drug metabolism,[6],metabolite_detected
same,Stability,[7],Unstable
same,Drug metabolism,[8],metabolite_detected
same,Stability,[9],Unstable
same,Drug metabolism,[10],metabolite_detected
same,Activity,[11],Active
same,Drug metabolism,[12],metabolite_detected
same,bioavailability,[13],18%
same,Drug metabolism,[14],metabolite_detected
same,Drug metabolism,[15],metabolite_detected
COC1=C[C@@H]2[C@@H]3Cc4c(CO)cc(OC)c(OC(=O)/C=C/c5ccccc5)c4[C@]2(CCN3C)CC1=O,Activity,[16],Dose-dependent-effect
same,Activity,[17],Active
same,inhibition,[18],Active
same,Activity,[19],inactive
same,Activity,[20],60.82%
same,inhibition,[21],Active
same,Activity,[22],Active
same,MTD at 336 h,[23],> 10000 mg/kg
same,IC50,[24],133 µM
same,Activity,[25],inactive
same,Activity,[26],inactive
same,inhibition,[27],Active
same,Activity,[28],Active
same,Activity,[29],Not active; Elevation Was Smaller Than In Mouse Ctll-2 Cells
same,Activity,[30],inactive
same,Activity,[31],38.55%
same,AUC,[32],15400 ng·h/mL
same,Activity,[11],Active; All Mice Survived
same,Activity,[33],Active
same,bioavailability,[13],59.2%
